Data taken from patent publication US20150239889A1, “PYRAZOLOPYRIMIDINE COMPOUND” (MITSUBISHI TANABE PHARMA CORPORATION, priority 2012, published 2015).

These compounds were tested against T1, human HIF-PHD3 (Homo sapiens, UniProt Q9H6Z9) (assay: HIF-PHD inhibition assay (fluorescence polarization), human HIF-PHD3). Details: 2-oxoglutaric acid 166 μmol/L.
T1 construct: purchased CrystalGenomics Ltd
Type: biochemical
Summary of the method: (§1)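 Activity was derived as the fluorescence polarization (mP) after enzyme addition minus that measured before enzyme addition. Probe bore a 5′-fluoresceinamide (FAM) label with an aminocaproic acid (ACA) linker.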

T1 sequence (Q9H6Z9 whole entry): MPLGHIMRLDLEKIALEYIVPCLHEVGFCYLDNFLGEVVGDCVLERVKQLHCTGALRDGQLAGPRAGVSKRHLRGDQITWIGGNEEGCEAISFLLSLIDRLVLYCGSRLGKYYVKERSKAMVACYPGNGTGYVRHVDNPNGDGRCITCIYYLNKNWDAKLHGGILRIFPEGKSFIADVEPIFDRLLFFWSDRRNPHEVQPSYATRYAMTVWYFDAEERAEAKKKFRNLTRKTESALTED

| IC50 [nM] | Compound |
| --- | --- |
| 170 | O=C(O)c1cnn(-c2nc(O)c3c(cnn3CCCOc3ccc(Cl)c(C(F)(F)F)c3)n2)c1 [Example 177] |
| 240 | O=C(O)c1cnn(-c2nc(O)c3c(n2)c(F)nn3CC2CCC3(CC2)CC3)c1 [Example 466] |
| 160 | O=C(O)c1cnn(-c2nc(O)c3nn(CCCN(c4ccccc4)c4ccccc4)cc3n2)c1 [Example 246] |
| 550 | C[C@@H](c1ccc(C(F)(F)F)cc1)n1nc(F)c2nc(-n3cc(C(=O)O)cn3)nc(O)c21 [Example 439] |
| 160 | O=C(O)c1cnn(-c2nc(O)c3c(cnn3CCOc3ccc4ccccc4c3)n2)c1 [Example 207] |
| 140 | O=C(O)c1cnn(-c2nc(O)c3nn(Cc4cccc(-c5ccccc5)c4)cc3n2)c1 [Example 240] |
| 68 | O=C(O)c1cnn(-c2nc(O)c3nn(Cc4ccc(-c5ccccc5)cc4F)cc3n2)c1 [Example 245] |

Continued, compound first:

| Compound | IC50 [nM] |
| --- | --- |
| CC[C@H]1CC[C@H](Cn2ncc3nc(-n4cc(C(=O)O)cn4)nc(O)c32)CC1 [Example 140] | 830 |
| O=C(O)c1cnn(-c2nc(O)c3c(cnn3Cc3ccc(C(F)(F)F)c(Cl)c3)n2)c1 [Example 6] | 130 |
| O=C(O)c1cnn(-c2nc(O)c3c(cnn3Cc3ccc(-c4cc(F)ccc4F)cc3)n2)c1 [Example 77] | 130 |
| C[C@@H](c1cccc(-c2ccccc2)c1)n1ncc2nc(-n3cc(C(=O)O)cn3)nc(O)c21 [Example 54] | 250 |
| Cc1cccc(-c2ccc(Cn3ncc4nc(-n5cc(C(=O)O)cn5)nc(O)c43)cc2)c1 [Example 64] | 66 |
| O=C(O)c1cnn(-c2nc(O)c3c(cnn3CC3(c4ccccc4)CCCCC3)n2)c1 [Example 124] | 930 |
| N#Cc1ccccc1-c1ccc(Cn2ncc3nc(-n4cc(C(=O)O)cn4)nc(O)c32)c(F)c1 [Example 87] | 260 |
| O=C(O)c1cnn(-c2nc(O)c3c(cnn3C[C@H]3CC[C@H](C(F)(F)F)CC3)n2)c1 [Example 137] | 260 |
| COc1ccccc1-c1ccc(Cn2ncc3nc(-n4cc(C(=O)O)cn4)nc(O)c32)c(F)c1 [Example 85] | 66 |
| O=C(O)c1cnn(-c2nc(O)c3c(cnn3Cc3ccc(-c4ccccc4F)c(F)c3F)n2)c1 [Example 101] | 120 |
| COc1cccc(Cl)c1-c1ccc(Cn2ncc3nc(-n4cc(C(=O)O)cn4)nc(O)c32)cc1 [Example 69] | 110 |
| CC(C)[C@H]1CC[C@H](Cn2ncc3nc(-n4cc(C(=O)O)cn4)nc(O)c32)CC1 [Example 141] | 270 |

Each compound was assayed against T2, human HIF-PHD2 (Homo sapiens, UniProt Q9GZT9) (assay: HIF-PHD inhibition assay (fluorescence polarization), human HIF-PHD2). Details: 2-oxoglutaric acid 3.33 μmol/L.
T2 construct: purchased CrystalGenomics Ltd
Type: biochemical
Summary of the method: as §1

T2 sequence (Q9GZT9 2-426 limits assumed): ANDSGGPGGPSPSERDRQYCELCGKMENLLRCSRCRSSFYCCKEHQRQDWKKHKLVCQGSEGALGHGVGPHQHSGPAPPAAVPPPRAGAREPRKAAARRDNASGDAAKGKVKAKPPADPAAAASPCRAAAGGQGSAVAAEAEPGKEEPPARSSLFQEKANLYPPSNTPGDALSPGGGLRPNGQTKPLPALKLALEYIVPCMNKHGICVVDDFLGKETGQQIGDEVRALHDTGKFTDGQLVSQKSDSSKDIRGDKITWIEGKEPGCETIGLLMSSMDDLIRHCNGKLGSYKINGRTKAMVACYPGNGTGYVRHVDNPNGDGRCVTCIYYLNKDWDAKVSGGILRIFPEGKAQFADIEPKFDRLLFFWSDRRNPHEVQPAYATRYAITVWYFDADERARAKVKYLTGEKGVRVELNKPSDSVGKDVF

| IC50 [nM] | Compound |
| --- | --- |
| 28 | O=C(O)c1cnn(-c2nc(O)c3c(cnn3CCCOc3ccc(Cl)c(C(F)(F)F)c3)n2)c1 [Example 177] |
| 12 | O=C(O)c1cnn(-c2nc(O)c3c(n2)c(F)nn3CC2CCC3(CC2)CC3)c1 [Example 466] |
| 21 | O=C(O)c1cnn(-c2nc(O)c3nn(CCCN(c4ccccc4)c4ccccc4)cc3n2)c1 [Example 246] |
| 22 | C[C@@H](c1ccc(C(F)(F)F)cc1)n1nc(F)c2nc(-n3cc(C(=O)O)cn3)nc(O)c21 [Example 439] |
| 13 | O=C(O)c1cnn(-c2nc(O)c3c(cnn3CCOc3ccc4ccccc4c3)n2)c1 [Example 207] |
| 17 | O=C(O)c1cnn(-c2nc(O)c3nn(Cc4cccc(-c5ccccc5)c4)cc3n2)c1 [Example 240] |
| 2.3 | O=C(O)c1cnn(-c2nc(O)c3nn(Cc4ccc(-c5ccccc5)cc4F)cc3n2)c1 [Example 245] |

The remaining lines, values behind:

| Compound | IC50 [nM] |
| --- | --- |
| CC[C@H]1CC[C@H](Cn2ncc3nc(-n4cc(C(=O)O)cn4)nc(O)c32)CC1 [Example 140] | 14 |
| O=C(O)c1cnn(-c2nc(O)c3c(cnn3Cc3ccc(C(F)(F)F)c(Cl)c3)n2)c1 [Example 6] | 41 |
| O=C(O)c1cnn(-c2nc(O)c3c(cnn3Cc3ccc(-c4cc(F)ccc4F)cc3)n2)c1 [Example 77] | 8.7 |
| C[C@@H](c1cccc(-c2ccccc2)c1)n1ncc2nc(-n3cc(C(=O)O)cn3)nc(O)c21 [Example 54] | 18 |
| Cc1cccc(-c2ccc(Cn3ncc4nc(-n5cc(C(=O)O)cn5)nc(O)c43)cc2)c1 [Example 64] | 18 |
| O=C(O)c1cnn(-c2nc(O)c3c(cnn3CC3(c4ccccc4)CCCCC3)n2)c1 [Example 124] | 55 |
| N#Cc1ccccc1-c1ccc(Cn2ncc3nc(-n4cc(C(=O)O)cn4)nc(O)c32)c(F)c1 [Example 87] | 50 |
| O=C(O)c1cnn(-c2nc(O)c3c(cnn3C[C@H]3CC[C@H](C(F)(F)F)CC3)n2)c1 [Example 137] | 20 |
| COc1ccccc1-c1ccc(Cn2ncc3nc(-n4cc(C(=O)O)cn4)nc(O)c32)c(F)c1 [Example 85] | 11 |
| O=C(O)c1cnn(-c2nc(O)c3c(cnn3Cc3ccc(-c4ccccc4F)c(F)c3F)n2)c1 [Example 101] | 15 |
| COc1cccc(Cl)c1-c1ccc(Cn2ncc3nc(-n4cc(C(=O)O)cn4)nc(O)c32)cc1 [Example 69] | 13 |
| CC(C)[C@H]1CC[C@H](Cn2ncc3nc(-n4cc(C(=O)O)cn4)nc(O)c32)CC1 [Example 141] | 14 |

What follows are compounds tested on Hep3B cells (assay: EPO production assay (ELISA of culture supernatant)). Details: Homo sapiens, 3 μmol/L test compound, 48 hours, relative to control (0.1% DMSO), read-out: EPO production stimulation rate with 3 μmol/L test compound.
Type: cell-based
Summary of the method: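 Hep3B cells (40000/well) switched to MEM with 0.5% FBS and treated with compound (0.1% DMSO) for 48 h at 37 °C. Supernatant EPO measured by ELISA; value is fold stimulation at 3 μmol/L compound over unstimulated control.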

| Compound | fold induction at 3 µM |
| --- | --- |
| O=C(O)c1cnn(-c2nc(O)c3c(cnn3CCCOc3ccc(Cl)c(C(F)(F)F)c3)n2)c1 [Example 177] | 9.1 |
| CC[C@H]1CC[C@H](Cn2ncc3nc(-n4cc(C(=O)O)cn4)nc(O)c32)CC1 [Example 140] | 6.2 |
| O=C(O)c1cnn(-c2nc(O)c3c(cnn3Cc3ccc(C(F)(F)F)c(Cl)c3)n2)c1 [Example 6] | 6.1 |
| O=C(O)c1cnn(-c2nc(O)c3c(n2)c(F)nn3CC2CCC3(CC2)CC3)c1 [Example 466] | 2.6 |
| O=C(O)c1cnn(-c2nc(O)c3c(cnn3Cc3ccc(-c4cc(F)ccc4F)cc3)n2)c1 [Example 77] | 9.8 |
| O=C(O)c1cnn(-c2nc(O)c3nn(CCCN(c4ccccc4)c4ccccc4)cc3n2)c1 [Example 246] | 1.8 |
| C[C@@H](c1cccc(-c2ccccc2)c1)n1ncc2nc(-n3cc(C(=O)O)cn3)nc(O)c21 [Example 54] | 5.6 |
| Cc1cccc(-c2ccc(Cn3ncc4nc(-n5cc(C(=O)O)cn5)nc(O)c43)cc2)c1 [Example 64] | 23 |
| O=C(O)c1cnn(-c2nc(O)c3c(cnn3CC3(c4ccccc4)CCCCC3)n2)c1 [Example 124] | 3.4 |
| N#Cc1ccccc1-c1ccc(Cn2ncc3nc(-n4cc(C(=O)O)cn4)nc(O)c32)c(F)c1 [Example 87] | 5.3 |
| O=C(O)c1cnn(-c2nc(O)c3c(cnn3C[C@H]3CC[C@H](C(F)(F)F)CC3)n2)c1 [Example 137] | 9.8 |
| COc1ccccc1-c1ccc(Cn2ncc3nc(-n4cc(C(=O)O)cn4)nc(O)c32)c(F)c1 [Example 85] | 4 |
| O=C(O)c1cnn(-c2nc(O)c3c(cnn3Cc3ccc(-c4ccccc4F)c(F)c3F)n2)c1 [Example 101] | 12 |
| C[C@@H](c1ccc(C(F)(F)F)cc1)n1nc(F)c2nc(-n3cc(C(=O)O)cn3)nc(O)c21 [Example 439] | 5.3 |
| O=C(O)c1cnn(-c2nc(O)c3c(cnn3CCOc3ccc4ccccc4c3)n2)c1 [Example 207] | 2.5 |
| COc1cccc(Cl)c1-c1ccc(Cn2ncc3nc(-n4cc(C(=O)O)cn4)nc(O)c32)cc1 [Example 69] | 7.8 |
| CC(C)[C@H]1CC[C@H](Cn2ncc3nc(-n4cc(C(=O)O)cn4)nc(O)c32)CC1 [Example 141] | 1.2 |
| O=C(O)c1cnn(-c2nc(O)c3nn(Cc4cccc(-c5ccccc5)c4)cc3n2)c1 [Example 240] | 1 |
| O=C(O)c1cnn(-c2nc(O)c3nn(Cc4ccc(-c5ccccc5)cc4F)cc3n2)c1 [Example 245] | 6.2 |
